Results taken from patent EP2582674B1 (Cymabay Therapeutics, Inc., priority 2010, dated 2011).

What was measured:
C57BL/6J mice [1] = assay: Oral glucose tolerance test; assay type: in vivo; settings: 6 h fasted male C57BL/6J mice, incremental AUC vs vehicle; for % reduction AUC glucose excursion: Sitagliptin at 1mg/kg, 3g/kg oral glucose; for % reduction AUC glucose excursion at 100mg/kg: 100 mg/kg oral gavage 30 min before 3g/kg oral glucose
Experimental: (§1) 8-10 week old male C57BL/6J mice (Harlan) were maintained on regular chow diet from Harlan (2018 Teklad Global). On the day of the experiment mice were fasted for 6 hours, then randomized into groups (n=10-15) to receive the tested GPR120 agonist at doses ranging from 100mg/kg or the vehicle (1% CMC, 2% TWEEN 80). Compounds were delivered orally via gavage at 10mL/kg. Blood glucose levels were measured by glucometer (Ascensia Elite XL, Bayer) at time -30 minutes before administration of compound. Blood glucose was measured again after 30 minutes (at time 0), and then the mice were dosed orally with 3g/kg glucose at 10mL/kg. Blood glucose measurements were taken 20, 40, 60, 90 and 120 minutes after glucose administration, by glucometer (Ascensia Elite XL, Bayer).
(§2) Glucose levels were plotted against time, and the incremental area under the curve (AUC) of the glucose excursion was determined from time 0 using Graphpad Prism 5.01. Outliers were excluded using Tukey's box plot outlier test, and statistical significance of differences in AUC of compound treatment compared to vehicle was determined by non-parametric Kruskal-Wallis test with Dunn's post test.
Tables 2 and 3 below show the mean percentage inhibition of the glucose excursion for the fifteen animals tested in each group. The compounds were tested at 100 mg/kg and the levels of blood glucose were determined in the presence and absence of the tested compounds. The percentage of glucose reduction is reported. The tested compounds were selected as examples from the exemplified compounds. […]

C57BL/6J mice [2] = assay: Intra peritoneal glucose tolerance test (IPGTT); assay type: in vivo; settings: 30 mg/kg oral gavage 30 min before 2g/kg glucose intra peritoneally, overnight fasted male C57BL/6J mice, incremental AUC of glucose excursion vs vehicle; for inhibition in vivo at 30 mg/kg: Mus musculus, 2 h, read-out: % reduction IPGTT at 30mg/kg
Experimental: as §1, with “day before” for “day of”, “fasted overnight,” for “fasted for 6 hours,”, “dosed intra peritoneally” for “dosed orally”, “with 2g/kg” for “with 3g/kg”
as §2
The compounds were tested at 30 mg/kg and the levels of blood glucose were determined in the presence and absence of the tested compounds. The percentage of glucose reduction is reported. The tested compounds were selected as Examples from the exemplified compounds. […]

human GPR120 = target: T1, human GPR120 (Homo sapiens, UniProt Q5NUL3); assay: Intracellular Ca2+ assay in human GPR120 stable cell line (FLIPR Calcium 4 dye, Flexstation); assay type: cell-based; settings: HEK293 cells co-expressing Gqi5; for activity at 2.5 µM: HEK293, % activity at 2.5 µM compared to the maximal activity of the compound of Example 25 at 2.5 µM (=100%), read-out: % Activity (Ex. 25 Reference Compound); for activity at 5 µM: HEK293, % activity at 5 µM compared to the maximal activity of GW9508 at 6.7 µM (=100%), read-out: %Activity (GW9508 Reference Compound)
T1 construct: host or cells: HEK293 cells co-expressing Gqi5
T1 sequence (Q5NUL3 1-361): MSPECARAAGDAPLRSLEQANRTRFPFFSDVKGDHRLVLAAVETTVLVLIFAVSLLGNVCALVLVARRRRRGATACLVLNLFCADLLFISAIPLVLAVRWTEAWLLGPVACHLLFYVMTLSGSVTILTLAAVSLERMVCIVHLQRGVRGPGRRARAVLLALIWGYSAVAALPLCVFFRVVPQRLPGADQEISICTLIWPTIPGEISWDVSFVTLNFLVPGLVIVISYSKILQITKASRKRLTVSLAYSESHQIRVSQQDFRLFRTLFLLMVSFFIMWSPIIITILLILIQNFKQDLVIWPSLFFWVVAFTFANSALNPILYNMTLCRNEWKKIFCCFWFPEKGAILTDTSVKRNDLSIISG

Row | activity at 2.5 µM (human GPR120) [%] | Compound | inhibition in vivo at 30 mg/kg (C57BL/6J mice [2]) [%] | other results
1 | – | N[C@@H](CC(=O)N1CCn2c(nnc2C(F)(F)F)C1)Cc1cc(F)c(F)cc1F [Sitagliptin, sitagliptin, reference compound] | – | % reduction AUC glucose excursion (C57BL/6J mice [1]; Table 2): 58.6%; % reduction AUC glucose excursion (C57BL/6J mice [1]; Table 3): 48.6%
2 | 143 | C[C@H](Cc1ccc(OCc2cc(Cl)cc3c2OC(C)(C)C3)c(F)c1)C(=O)O [Example 141, (R)-3-(4-((5-chloro-2,2-dimethyl-2,3-dihydrobenzofuran-7-yl)methoxy)-3-fluorophenyl)-2-methylpropanoic acid] | 30.6 | –
3 | 110 | CC(Cc1ccc(OCc2cc(Cl)cc3c2OC(C)(C)C3=O)c(F)c1)C(=O)O (centres unmarked) [Example 77, 3-(4-((5-chloro-2,2-dimethyl-3-oxo-2,3-dihydrobenzofuran-7-yl)methoxy)-3-fluorophenyl)-2-methylpropanoic acid] | 10.4 | –
4 | 147 | Cc1c(CCC(=O)O)ccc(OCc2cc(F)cc3c2OC(C)(C)C3)c1C [Example 208, 3-(4-((5-fluoro-2,2-dimethyl-2,3-dihydrobenzofuran-7-yl)methoxy)-2,3-dimethylphenyl)propanoic acid] | 41.7 | –
5 | – | CC1(C)Cc2cc(Cl)cc(COc3c(F)cc(C4CC4C(=O)O)cc3F)c2O1 (racemic) [Example 35, 2-(4-((5-chloro-2,2-dimethyl-2,3-dihydrobenzofuran-7-yl)methoxy)-3,5-difluorophenyl)cyclopropanecarboxylic acid] | – | activity at 5 µM (human GPR120): 60.1%; % reduction AUC glucose excursion at 100mg/kg (C57BL/6J mice [1]; Table 3): 27.7%
6 | – | CC(Cc1ccc(OCc2cc(F)cc3c2OC(C)(C)C3)cc1)C(=O)O (centres unmarked) [Example 16, 3-(4-((5-fluoro-2,2-dimethyl-2,3-dihydrobenzofuran-7-yl)methoxy)phenyl)-2-methylpropanoic acid] | 19.4 | activity at 5 µM (human GPR120): 111%; % reduction AUC glucose excursion at 100mg/kg (C57BL/6J mice [1]; Table 3): 52.4%
7 | – | 3-(4-((5-chloro-2,2-dimethyl-2,3-dihydrobenzofuran-7-yl)methoxy)-3-fluorophenyl)-2-methylpropanoic acid [Example 10] | – | % reduction IPGTT at 30mg/kg (C57BL/6J mice [2]): 30.7%; %Activity (GW9508 Reference Compound) (human GPR120; % activity at 5 µM compared to the maximal activity of GW9508 at 6.7 µM (=100%)): 106.7955%; % reduction AUC glucose excursion at 100mg/kg (C57BL/6J mice [1]; Table 2): 58.1%
8 | 130 | COc1cc(OCc2cc(F)cc3c2OC(C)(C)C3)ccc1CCC(=O)O [Example 50, 3-(4-((5-fluoro-2,2-dimethyl-2,3-dihydrobenzofuran-7-yl)methoxy)-2-methoxyphenyl)propanoic acid] | 26.2 | –
9 | 106 | CC1(C)Cc2cc(F)cc(COc3ccc4c(c3)CC[C@@H]4CC(=O)O)c2O1 [Example 178, (R)-2-(5-((5-fluoro-2,2-dimethyl-2,3-dihydrobenzofuran-7-yl)methoxy)-2,3-dihydro-1H-inden-1-yl)acetic acid] | 16.3 | –
10 | – | CC(Cc1ccc(OCc2cc(Cl)cc3c2OC(C)(C)C3)cc1)C(=O)O (centres unmarked) [Example 13] | – | % reduction AUC glucose excursion at 100mg/kg (C57BL/6J mice [1]; Table 2): 61.9%
11 | – | CC1(C)Cc2cc(Cl)cc(COc3ccc4c(c3)CCC4CC(=O)O)c2O1 (centres unmarked) [Example 36, 2-(5-((5-chloro-2,2-dimethyl-2,3-dihydrobenzofuran-7-yl)methoxy)-2,3-dihydro-1H-inden-1-yl)acetic acid] | – | activity at 5 µM (human GPR120): 123%; % reduction AUC glucose excursion at 100mg/kg (C57BL/6J mice [1]; Table 3): 33.6%
12 | 142 | Cc1c(CCC(=O)O)ccc(OCc2cc(Cl)cc3c2OC(C)(C)C3)c1C [Example 209, 3-(4-((5-chloro-2,2-dimethyl-2,3-dihydrobenzofuran-7-yl)methoxy)-2,3-dimethylphenyl)propanoic acid] | 43.6 | –
13 | – | CC(Cc1ccc(OCc2cc(Cl)cc3c2OC(C)(C)C3)c(C(F)(F)F)c1)C(=O)O (centres unmarked) [Example 9, 3-(4-((5-chloro-2,2-dimethyl-2,3-dihydrobenzofuran-7-yl)methoxy)-3-(trifluoromethyl)phenyl)-2-methylpropanoic acid] | 19.8 | activity at 5 µM (human GPR120): 113%
14 | 141 | C[C@H](Cc1ccc(OCc2cc(F)cc3c2OC(C)(C)C3)cc1)C(=O)O [Example 65, (R)-3-(4-((5-fluoro-2,2-dimethyl-2,3-dihydrobenzofuran-7-yl)methoxy)phenyl)-2-methylpropanoic acid] | 22.2 | –
